Assay type in all cases: cell-based
The subject of experiment [1] is Pseudomonas aeruginosa ATCC 15442. Put plainly: Minimum Inhibitory Concentration (MIC) test, 96 well microtiter plate. Here is the method: Microorganisms: Pseudomonas aeruginosa ATCC 15442
(§1) MIC set up: A 96 well microtiter plate Minimum Inhibitory Concentration (MIC) test was run in broth suitable for the test organism. Serially diluted actives were prepared in sterilized water, and the start-up concentration varied depending on the efficacy range. Inocula prepared in 2× suitable broth was added into each well, and the final concentrations of bacteria were adjusted to approximately 5×10^5.

In experiment [2] the test system is mixed bacterial inoculum (Pseudomonas aeruginosa, Enterobacter cloacae, Escherichia coli, Acinetobacter calcoaceticus). Put plainly: Repeated inoculation of standard acrylic paint, streak plate rating. Here is the method:
In the following experiments, a pyrithione, an isothiazolinone, and a biocide enhancing agent in accordance with the present disclosure were combined with a standard acrylic paint. The concentrations of the pyrithione, the isothiazolinone and the biocide enhancing agent were varied. The pyrithione, the isothiazolinone and the biocide enhancing agent were added alone and in various mixtures to the standard acrylic paint.
The acrylic paint was then inoculated three times using a mixed bacterial inoculum. The bacterial inoculum, which comprised a bacterial suspension in water, contained the following four bacteria in equal proportions.
The samples were streak plated at 24, 48, and 72 hours after inoculation. The streak plates were rated as follows;

Experiment [3] concerns Aspergillus brasiliensis. Put plainly: MIC test, 96 well microtiter plate. The note with it: single chemical. The procedure:
as §1
(§2) Further MIC tests were conducted using different amine compounds in combination with a pyrithione and two different isothiazolinones. The procedures described in Example No. 1 were used.

Experiment [4] has as its system Aureobasidium pullulans. Put plainly: MIC test, 96 well microtiter plate. The note with it: single chemical. The procedure:
as §1, §2

Experiment [5] deals with Candida albicans. Put plainly: MIC test, 96 well microtiter plate. The note with it: single chemical. The procedure: as §1, §2
For experiment [6], the system named is Escherichia coli. Put plainly: MIC test, 96 well microtiter plate. The following applies: single chemical. The procedure:
as §1, §2

Experiment [7] relates to Staphylococcus aureus. Put plainly: MIC test, 96 well microtiter plate. The note with it: single chemical. Here is the method:
as §1, §2

≈ marks a conversion by molar mass, not a printed value.

As to `CCCCCCCCCCCCN` [DDA, 1-dodecylamine], in experiment [1] (MIC of blends with BIT, Table 2), the “biocide enhancing effect on the isothiazolin” value is on record as “had an enhancing effect on the isothiazolin”. For the same compound, the “biocide enhancing effect on zinc pyrithione” value in experiment [1] (MIC of blends with ZnPT, Table 1) is “enhance the effectiveness of the zinc pyrithione”. For the same compound, the MIC in experiment [1] (Pseudomonas aeruginosa, ATCC15442, single chemical) was 200 µg/mL (≈ 1080 µM). The streak plate rating in experiment [2] (Set Four, DDA 600 ppm, 1st inoculation 24 h) is listed as 5 (>45 viable microorganisms Severely contaminated); in experiment [2] (Set Four, DDA 600 ppm, 1st inoculation 48 h), 2 (6-15 viable microorganisms Lightly contaminated); in experiment [2] (Set Four, DDA 600 ppm, 1st inoculation 72 h), 0; in experiment [2] (Set Four, DDA 600 ppm, 2nd inoculation 24 h) it was 5 (>45 viable microorganisms Severely contaminated); in experiment [2] (Set Four, DDA 600 ppm, 2nd inoculation 48 h), 5 (>45 viable microorganisms Severely contaminated); in experiment [2] (Set Four, DDA 600 ppm, 2nd inoculation 72 h), 5 (>45 viable microorganisms Severely contaminated). In addition, the streak plate rating is 5 (>45 viable microorganisms Severely contaminated) in experiment [2] (Set Four, DDA 600 ppm, 3rd inoculation 24 h); 5 (>45 viable microorganisms Severely contaminated) in experiment [2] (Set Four, DDA 600 ppm, 3rd inoculation 48 h); 5 (>45 viable microorganisms Severely contaminated) in experiment [2] (Set Four, DDA 600 ppm, 3rd inoculation 72 h); 5 (>45 viable microorganisms Severely contaminated) in experiment [2] (Set One, DDA 600 ppm, 1st inoculation 24 h); 5 (>45 viable microorganisms Severely contaminated) in experiment [2] (Set One, DDA 600 ppm, 1st inoculation 48 h); 5 (>45 viable microorganisms Severely contaminated) in experiment [2] (Set One, DDA 600 ppm, 1st inoculation 72 h). Moreover, the streak plate rating is listed as 5 (>45 viable microorganisms Severely contaminated) in experiment [2] (Set One, DDA 600 ppm, 2nd inoculation 24 h); 5 (>45 viable microorganisms Severely contaminated) in experiment [2] (Set One, DDA 600 ppm, 2nd inoculation 48 h); 5 (>45 viable microorganisms Severely contaminated) in experiment [2] (Set One, DDA 600 ppm, 3rd inoculation 24 h); 5 (>45 viable microorganisms Severely contaminated) in experiment [2] (Set One, DDA 600 ppm, 3rd inoculation 48 h); 5 (>45 viable microorganisms Severely contaminated) in experiment [2] (Set One, DDA 600 ppm, 3rd inoculation 72 h); 5 (>45 viable microorganisms Severely contaminated) in experiment [2] (Set One, DDA 900 ppm, 1st inoculation 24 h). The streak plate rating was 5 (>45 viable microorganisms Severely contaminated) in experiment [2] (Set One, DDA 900 ppm, 1st inoculation 48 h); 5 (>45 viable microorganisms Severely contaminated) in experiment [2] (Set One, DDA 900 ppm, 1st inoculation 72 h); 5 (>45 viable microorganisms Severely contaminated) in experiment [2] (Set One, DDA 900 ppm, 2nd inoculation 24 h); 5 (>45 viable microorganisms Severely contaminated) in experiment [2] (Set One, DDA 900 ppm, 2nd inoculation 48 h); 5 (>45 viable microorganisms Severely contaminated) in experiment [2] (Set One, DDA 900 ppm, 3rd inoculation 24 h); 5 (>45 viable microorganisms Severely contaminated) in experiment [2] (Set One, DDA 900 ppm, 3rd inoculation 48 h). The streak plate rating in experiment [2] (Set One, DDA 900 ppm, 3rd inoculation 72 h) is 5 (>45 viable microorganisms Severely contaminated); in experiment [2] (Set One, DDA 1200 ppm, 1st inoculation 24 h), 5 (>45 viable microorganisms Severely contaminated); in experiment [2] (Set One, DDA 1200 ppm, 1st inoculation 48 h) it was 5 (>45 viable microorganisms Severely contaminated); in experiment [2] (Set One, DDA 1200 ppm, 1st inoculation 72 h), 5 (>45 viable microorganisms Severely contaminated); in experiment [2] (Set One, DDA 1200 ppm, 2nd inoculation 24 h), 5 (>45 viable microorganisms Severely contaminated); in experiment [2] (Set One, DDA 1200 ppm, 2nd inoculation 48 h), 5 (>45 viable microorganisms Severely contaminated). The streak plate rating in experiment [2] (Set One, DDA 1200 ppm, 3rd inoculation 24 h) was 5 (>45 viable microorganisms Severely contaminated); in experiment [2] (Set One, DDA 1200 ppm, 3rd inoculation 48 h), 5 (>45 viable microorganisms Severely contaminated); in experiment [2] (Set One, DDA 1200 ppm, 3rd inoculation 72 h), 5 (>45 viable microorganisms Severely contaminated); in experiment [2] (Set One, DDA 1800 ppm, 1st inoculation 24 h) it was 2 (6-15 viable microorganisms Lightly contaminated); in experiment [2] (Set One, DDA 1800 ppm, 1st inoculation 48 h) it was 3 (16-30 viable microorganisms Moderately contaminated); in experiment [2] (Set One, DDA 1800 ppm, 1st inoculation 72 h), 1 (1-5 viable microorganisms Very lightly contaminated). Moreover, the streak plate rating in experiment [2] (Set One, DDA 1800 ppm, 2nd inoculation 24 h) is reported as 5 (>45 viable microorganisms Severely contaminated); in experiment [2] (Set One, DDA 1800 ppm, 2nd inoculation 48 h), 5 (>45 viable microorganisms Severely contaminated); in experiment [2] (Set One, DDA 1800 ppm, 3rd inoculation 24 h), 5 (>45 viable microorganisms Severely contaminated); in experiment [2] (Set One, DDA 1800 ppm, 3rd inoculation 48 h), 5 (>45 viable microorganisms Severely contaminated); in experiment [2] (Set One, DDA 1800 ppm, 3rd inoculation 72 h), 5 (>45 viable microorganisms Severely contaminated); in experiment [2] (Set Two, DDA alone, ppm not given, 1st inoculation 24 h), 5 (>45 viable microorganisms Severely contaminated). The streak plate rating in experiment [2] (Set Two, DDA alone, ppm not given, 1st inoculation 48 h) is reported as 5 (>45 viable microorganisms Severely contaminated); in experiment [2] (Set Two, DDA alone, ppm not given, 1st inoculation 72 h), 5 (>45 viable microorganisms Severely contaminated); in experiment [2] (Set Two, DDA alone, ppm not given, 2nd inoculation 24 h) it was 5 (>45 viable microorganisms Severely contaminated); in experiment [2] (Set Two, DDA alone, ppm not given, 2nd inoculation 48 h), 5 (>45 viable microorganisms Severely contaminated); in experiment [2] (Set Two, DDA alone, ppm not given, 2nd inoculation 72 h), 5 (>45 viable microorganisms Severely contaminated); in experiment [2] (Set Two, DDA alone, ppm not given, 3rd inoculation 24 h) it was 5 (>45 viable microorganisms Severely contaminated). Besides, the streak plate rating is reported as 5 (>45 viable microorganisms Severely contaminated) in experiment [2] (Set Two, DDA alone, ppm not given, 3rd inoculation 48 h) and 5 (>45 viable microorganisms Severely contaminated) in experiment [2] (Set Two, DDA alone, ppm not given, 3rd inoculation 72 h).
As to `CCCCn1sc2ccccc2c1=O` [BBIT], the “Minimum Inhibitory Concentration” value in experiment [3] was 1.9 ppm; in experiment [4], 2.5 ppm; in experiment [5], 3.75 ppm; in experiment [6], 80.0 ppm; in experiment [7], 5.0 ppm.
As to `CCCCCCCC[N+](C)(C)[O-]` [DMOA Oxide, N,N-dimethyloctylamine-n-oxide], the MIC in experiment [3] (Aspergillus brasiliensis, read-out: Minimum Inhibitory Concentration) was found to be 500 µg/mL; in experiment [4] (Aureobasidium pullulans, read-out: Minimum Inhibitory Concentration), 500 µg/mL; in experiment [5] (Candida albicans, read-out: Minimum Inhibitory Concentration) it was 375 µg/mL; in experiment [6] (Escherichia coli, read-out: Minimum Inhibitory Concentration), 750 µg/mL; in experiment [7] (Staphylococcus aureus, read-out: Minimum Inhibitory Concentration), 250 µg/mL. In experiment [3], the “Minimum Inhibitory Concentration” value amounted to 500 ppm.

These data come from patent publication US10721934B2, “Enhanced preservative” (Arch Chemicals, Inc., priority 2013, dated 2020).
